Measurements reported in patent US20260317332A1, “BICYCLIC HETEROCYCLE COMPOUNDS FOR THE TREATMENT OF CANCER” (Hoffmann-La Roche Inc., priority 2023, published 2026).

What was measured:
CD73 [1] = biological target: T1, CD73 (Homo sapiens, UniProt P21589); assay: Human CD73 Biochemical Assay; conditions: 0.05 nM recombinant CD73; AMP 5.56 μM final; 10 min at room temperature; LC/MS adenosine readout; read-out: Enzymatic IC50 against human CD73
T1 sequence (P21589 27-574): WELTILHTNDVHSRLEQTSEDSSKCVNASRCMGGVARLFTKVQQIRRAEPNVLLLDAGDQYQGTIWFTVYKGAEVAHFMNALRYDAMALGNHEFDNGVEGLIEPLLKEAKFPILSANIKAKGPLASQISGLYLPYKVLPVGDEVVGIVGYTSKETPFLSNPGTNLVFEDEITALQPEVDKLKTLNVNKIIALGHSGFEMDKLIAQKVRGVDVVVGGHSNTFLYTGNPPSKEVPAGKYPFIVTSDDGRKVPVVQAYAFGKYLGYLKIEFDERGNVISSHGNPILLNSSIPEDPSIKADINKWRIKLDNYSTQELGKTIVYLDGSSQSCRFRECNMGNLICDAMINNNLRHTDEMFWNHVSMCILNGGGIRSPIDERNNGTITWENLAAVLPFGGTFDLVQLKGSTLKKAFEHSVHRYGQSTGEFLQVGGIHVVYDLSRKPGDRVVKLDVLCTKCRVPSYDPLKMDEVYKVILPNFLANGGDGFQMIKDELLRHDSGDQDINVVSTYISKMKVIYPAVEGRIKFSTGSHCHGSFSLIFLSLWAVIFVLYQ
Description: The purpose of this assay is to identify and characterize inhibitors of human CD73 enzymatic activity. Compound serial dilution (1:3) was prepared with Echo 555 liquid handler (Labcyte) into the corresponding wells of a 384-well plate. 10 μL of enzyme working solution (containing 0.05 nM recombinant CD73 protein, 10 mM Tris pH 7.5, 100 mM NaCl, 0.01% BSA, 0.2 mM Octyl glucoside and 1 mM NaH2PO4) was added to the assay plate and incubated with compounds for 15 minutes at room temperature. After adding 15 μL of AMP working solution (Containing 10 mM Tris pH 7.5, 100 mM NaCl, 0.01% BSA, 0.2 mM Octyl glucoside, with 5.56 μM of AMP final concentration) and incubate for 10 min at room temperature. Stop the reaction by adding 75 μL of stop solution (5% TCA in H2O containing 250 nM 13C5-adenosine) to each well for 10 min incubation. After centrifugation, 75 μL of the mixture was transferred to a new 384-well plate for LC/MS analysis.
Samples from the 384-well plates, were loaded onto an autosampler deck, then injected with ADDA-LC-MS/MS. The aqueous mobile phase is 0.1% formic acid in water. The organic mobile phase is 0.1% formic acid in acetonitrile. Flow rate is maintained at 0.8 mL/minute using Shimadzu pumps. The column is ACE 5 Phenyl, 50×2.1 mm. The analysis was performed on a SCIEX triple quadrupole mass spectrometer operating in positive ion mode. The effluent from the HPLC column was directly introduced into the electrospray ionization (ESI). Multiple reaction monitoring (MRM) is used to determine analyte and internal standard (IS) responses. The MRM for adenosine is 268.1/136.1, for 13C5-Adenosine (IS) is 273.2/136.2. The data is calculated using the peak area ratio (PAR) semi-quantitative method.

CD73 [2] = biological target: T1, CD73; assay: CD73 Cellular Assay; type: cell-based; parameters: 40 μL of MDA-MB-231 cells (ATCC, HTB-26, breast cancer); host or cells: MDA-MB-231; conditions: MDA-MB-231 cells; 200 μM AMP working solution; 45 min at 37° C.; malachite readout; read-out: Cellular IC50 against CD73
Description: Compound serial dilution (1:3) was prepared with Echo 555 liquid handler (Labcyte) into the corresponding wells of a 384-well plate. 40 μL of MDA-MB-231 cells (ATCC, HTB-26, breast cancer, final concentration at 20,000 cells/mL) suspended in assay buffer (20 mM HEPES pH 7.4, 137 mM NaCl, 5.4 mM KCl, 1.3 mM CaCl2, 4.2 mM NaHCO3, 1 mg/mL glucose) were added into the corresponding wells of the plate. After incubating with compounds for 30 minutes, 40 μL of AMP working solution (200 μM AMP in assay buffer) was added into each well in the assay plate. The assay plate was then incubated in a 5% CO2 incubator (Thermo Fisher Scientific) at 37° C. for 45 min. After the reaction was completed, 50 μL of the supernatants was collected and transferred into a new 384 well plate. 10 μL of Malachite A was added to each well in the assay plate and incubated for 10 minutes. 10 μL of Malachite B was then added to each corresponding well of the plate and incubated for 30 minutes. Finally the absorbance value was read on the Envision plate reader at […]. Calculation percentage inhibition by using equation {% inhibition=100×[1−(X−MIN)/(MAX−MIN)]} where X equals to the well signal, Max equals signal of neutral control and MIN equals signal of inhibitor control.

Row | SMILES | IC50 (CD73 [1]) | IC50 (CD73 [2])
1 | Cn1nc(O[C@H](c2cc(OCC(F)(F)F)c(F)cn2)C(F)F)c2cc(-c3c[nH]c(=O)[nH]c3=O)nnc21 [Example 9A, 5-[3-[(1R)-2,2-difluoro-1-[5-fluoro-4-(2,2,2-trifluoroethoxy)-2-pyridyl]ethoxy]-1-methyl-pyrazolo[3,4-c]pyridazin-5-yl]-1H-pyrimidine-2,4-dione] | 110 pM | 730 pM
2 | Cn1nc(O[C@H](c2ccnc(OCC(F)F)c2)C(F)F)c2cc(-c3n[nH]c(=O)[nH]c3=O)nnc21 [Example 13A, 6-[3-[(1R)-1-[2-(2,2-difluoroethoxy)-4-pyridyl]-2,2-difluoro-ethoxy]-1-methyl-pyrazolo[3,4-c]pyridazin-5-yl]-2H-1,2,4-triazine-3,5-dione] | 20 pM | 970 pM
3 | Cn1nc(O[C@H](c2cc(OCC#N)ccn2)C(F)F)c2cc(-c3c[nH]c(=O)[nH]c3=O)nnc21 [Example 21, 2-[[2-[(1R)-1-[5-(2,4-dioxo-1H-pyrimidin-5-yl)-1-methyl-pyrazolo[3,4-c]pyridazin-3-yl]oxy-2,2-difluoro-ethyl]-4-pyridyl]oxy]acetonitrile] | 90 pM | 730 pM
4 | Cn1nc(O[C@H](c2cc(OCC3(C(F)(F)F)CC3)ccn2)C(F)F)c2cc(-c3c[nH]c(=O)[nH]c3=O)nnc21 [Example 23, 5-[3-[(1R)-2,2-difluoro-1-[4-[[1-(trifluoromethyl)cyclopropyl]methoxy]-2-pyridyl]ethoxy]-1-methyl-pyrazolo[3,4-c]pyridazin-5-yl]-1H-pyrimidine-2,4-dione] | 80 pM | 740 pM
5 | C[C@@H](Nc1cc([C@@H](Oc2nn(C)c3nnc(-c4c[nH]c(=O)[nH]c4=O)cc23)C(F)F)ccn1)C(F)(F)F [Example 27, 5-[3-[(1R)-2,2-difluoro-1-[2-[[(1R)-2,2,2-trifluoro-1-methyl-ethyl]amino]-4-pyridyl]ethoxy]-1-methyl-pyrazolo[3,4-c]pyridazin-5-yl]-1H-pyrimidine-2,4-dione] | 40 pM | 480 pM
6 | [2H]C([2H])([2H])C([2H])([2H])Oc1cc([C@@H](Oc2nn(C)c3nnc(-c4c[nH]c(=O)[nH]c4=O)cc23)C(F)F)ccn1 [Example 30, 5-[3-[(1R)-2,2-difluoro-1-[2-(1,1,2,2,2-pentadeuterioethoxy)-4-pyridyl]ethoxy]-1-methyl-pyrazolo[3,4-c]pyridazin-5-yl]-1H-pyrimidine-2,4-dione] | 50 pM | 600 pM
7 | Cn1nc(O[C@H](c2ccnc(N3CCC(F)(F)CC3)c2)C(F)F)c2cc(-c3c[nH]c(=O)[nH]c3=O)nnc21 [Example 31, 5-[3-[(1R)-1-[2-(4,4-difluoro-1-piperidyl)-4-pyridyl]-2,2-difluoro-ethoxy]-1-methyl-pyrazolo[3,4-c]pyridazin-5-yl]-1H-pyrimidine-2,4-dione] | 50 pM | 550 pM
8 | Cn1nc(O[C@H](c2ccnc(NC3CCC(F)(F)CC3)c2)C(F)F)c2cc(-c3c[nH]c(=O)[nH]c3=O)nnc21 [Example 32, 5-[3-[(1R)-1-[2-[(4,4-difluorocyclohexyl)amino]-4-pyridyl]-2,2-difluoro-ethoxy]-1-methyl-pyrazolo[3,4-c]pyridazin-5-yl]-1H-pyrimidine-2,4-dione] | 50 pM | 380 pM

Second part, the compound after the results:

Row | IC50 (CD73 [1]) | IC50 (CD73 [2]) | SMILES
9 | 80 pM | 590 pM | Cn1nc(O[C@H](c2cc(OCC(F)F)ccn2)C(F)F)c2cc(-c3c[nH]c(=O)[nH]c3=O)nnc21 [Example 7, 5-[3-[(1R)-1-[4-(2,2-difluoroethoxy)-2-pyridyl]-2,2-difluoro-ethoxy]-1-methyl-pyrazolo[3,4-c]pyridazin-5-yl]-1H-pyrimidine-2,4-dione]
10 | 70 pM | 880 pM | COCCOc1cc([C@@H](Oc2nn(C)c3nnc(-c4c[nH]c(=O)[nH]c4=O)cc23)C(F)F)ccc1F [Example 15, 5-[3-[(1R)-2,2-difluoro-1-[4-fluoro-3-(2-methoxyethoxy)phenyl]ethoxy]-1-methyl-pyrazolo[3,4-c]pyridazin-5-yl]-1H-pyrimidine-2,4-dione]
11 | 40 pM | 540 pM | Cn1nc(O[C@H](c2ccnc(OCC(C)(F)F)c2)C(F)F)c2cc(-c3c[nH]c(=O)[nH]c3=O)nnc21 [Example 16, 5-[3-[(1R)-1-[2-(2,2-difluoropropoxy)-4-pyridyl]-2,2-difluoro-ethoxy]-1-methyl-pyrazolo[3,4-c]pyridazin-5-yl]-1H-pyrimidine-2,4-dione]
12 | 60 pM | 490 pM | CCOc1ccnc([C@@H](Oc2nn(C)c3nnc(-c4c[nH]c(=O)[nH]c4=O)cc23)C(F)F)c1 [Example 20, 5-[3-[(1R)-1-(4-ethoxy-2-pyridyl)-2,2-difluoro-ethoxy]-1-methyl-pyrazolo[3,4-c]pyridazin-5-yl]-1H-pyrimidine-2,4-dione]
